According to patent publication US20220204491A1, “FXR (NR1H4) MODULATING COMPOUNDS” (Gilead Sciences, Inc., priority 2019, published 2022):

Molecular target: T1, FXR ligand binding domain (Homo sapiens, UniProt Q96RI1)
T1 construct: expressed in transfected cells; host or cells: HEK293 (DSMZ), transient transfection of pCMV-BD-FXR-LBD, pFR-Luc and pRL-CMV
T1 sequence (Q96RI1 187-472 isoform Q96RI1-2): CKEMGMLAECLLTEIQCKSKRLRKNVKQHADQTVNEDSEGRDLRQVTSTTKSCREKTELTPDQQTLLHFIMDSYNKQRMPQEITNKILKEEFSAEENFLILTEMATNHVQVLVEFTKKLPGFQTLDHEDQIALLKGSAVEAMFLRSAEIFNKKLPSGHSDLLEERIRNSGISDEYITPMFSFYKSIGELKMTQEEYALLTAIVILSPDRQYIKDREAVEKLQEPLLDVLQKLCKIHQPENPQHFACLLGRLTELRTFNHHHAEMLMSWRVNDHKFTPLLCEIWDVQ
Test: Mammalian one hybrid (M1H) Gal4 reporter assay in HEK293 cells
Format: cell-based
Settings: Gal4-FXR-LBD luciferase reporter, 16 hours
Procedure: Determination of a ligand mediated Gal4 promoter driven transactivation to quantify ligand binding mediated activation of FXR was performed as follows.
The cDNA part encoding the FXR ligand binding domain was cloned into vector pCMV-BD (Stratagene) as a fusion to the yeast GAL4 DNA binding domain under the control of the CMV promoter. The amino acid boundaries of the ligand binding domain were amino acids 187-472 of Database entry NM_005123 (RefSeq). The plasmid pFR-Luc (Stratagene) was used as the reporter plasmid, containing a synthetic promoter with five tandem repeats of the yeast GAL4 binding sites, driving the expression of the Photinus pyralis (American firefly) luciferase gene as the reporter gene. In order to improve experimental accuracy the plasmid pRL-CMV (Promega) was cotransfected. pRL-CMV contains the constitutive CMV promoter, controlling the expression of the Renilla reniformis luciferase. All Gal4 reporter gene assays were done in HEK293 cells (obtained from DSMZ, Braunschweig, Germany) grown in MEM with L-Glutamine and Earle's BSS supplemented with 10% fetal bovine serum, 0.1 mM nonessential amino acids, 1 mM sodium pyruvate, and 100 units Penicillin/[…] per mL at about 37° C. in 5% CO2. Medium and supplements were obtained from Invitrogen. For the assay, 5×10^5 cells were plated per well in 96 well plates in 100 μl per well MEM without Phenol Red and L-Glutamine and with Earle's BSS supplemented with 10% charcoal/dextran treated FBS (HyClone, South Logan, Utah), 0.1 mM nonessential amino acids, 2 mM glutamine, 1 mM sodium pyruvate, and 100 units Penicillin/[…] per mL, incubated at about 37° C. in 5% CO2. The following day the cells were >90% confluence. […] Cells were incubated for additional 16 hours before firefly and renilla luciferase activities were measured sequentially in the same cell extract using a Dual-Light-Luciferase-Assay system (Dyer et al., Anal. Biochem. 2000, 282, 158-161). […]

Row | EC50 | SMILES
1 | 1.2 nM | O=C(O)c1cnc(N2CC(O)(c3ccc(OCc4c(-c5c(Cl)cc(F)cc5Cl)noc4C4CC4)cc3Cl)C2)c(F)c1 [Comparative Example 1, 6-(3-(2-chloro-4-((5-cyclopropyl-3-(2,6-dichloro-4-fluorophenyl)isoxazol-4-yl)methoxy)phenyl)-3-hydroxyazetidin-1-yl)-5-fluoronicotinic acid]
2 | 2 nM | O=C(O)c1ccc(N2CC(O)(c3ccc(OCc4c(-c5c(Cl)cccc5Cl)noc4C4CC4)cc3Cl)C2)nc1 [Comparative Example 2]
3 | 5.5 nM | O=C(O)c1ccc(N2CC(O)(c3ccc(OCc4c(-c5c(Cl)cc(F)cc5Cl)noc4C4CC4)cc3Cl)C2)nc1 [Example 1, 6-(3-(2-chloro-4-((5-cyclopropyl-3-(2,6-dichloro-4-fluorophenyl)isoxazol-4-yl)methoxy)phenyl)-3-hydroxyazetidin-1-yl)nicotinic acid]
